# B1: rCRT: recombinant CRT protein (rCRT), which binds to the surface of the cells (protein, UniProt P27797 18-417, looked up)
# Calreticulin: EPAVYFKEQFLDGDGWTSRWIESKHKSDFGKFVLSSGKFYGDEEKDKGLQTSQDARFYALSASFEPFSNKGQTLVVQFTVKHEQNIDCGGGYVKLFPNSLDQTDMHGDSEYNIMFGPDICGPGTKKVHVIFNYKGKNVLINKDIRCKDDEFTHLYTLIVRPDNTYEVKIDNSQVESGSLEDDWDFLPPKKIKDPDASKPEDWDERAKIDDPTDSKPEDWDKPEHIPDPDAKKPEDWDEEMDGEWEPPVIQNPEYKGEWKPRQIDNPDYKGTWIHPEIDNPEYSPDPSIYAYDNFGVLGLDLWQVKSGTIFDNFLITNDEAYAEEFGNETWGVTKAAEKQMKDKQDEEQRLKEEEEDKKRKEEEEAEDKEDDEDKDEDEEDEEDKEEDEEEDVPGQAKDEL
# Tests used:
# HeLa, A549, HCT116 = assay: CRT exposure on a panel of human tumour cell lines; assay type: cell-based
# MCA205, B16F10, J558 = assay: CRT exposure on a panel of murine tumour cell lines; assay type: cell-based
# CT26 tumours [1] = assay: Single intratumoural injection into established CT26 tumours, immunocompetent mice; assay type: in vivo, BALB/c mice; settings: for therapeutic effect of intratumoural injection, single agent, immunocompetent mice: established 14-day-old CT26 tumours; for therapeutic effect combined with a cell death inducer (etoposide or mitomycin C), immunocompetent mice: intratumoural
# CT26 tumours [2] = assay: Single intratumoural injection into established CT26 tumours, athymic mice; design: species or system nu/nu Balb/c mice; settings: mouse, in vivo
# CT26 tumour cells = assay: Anti-tumour vaccination with treated (dying) CT26 cells and challenge with live tumour cells; assay type: in vivo, BALB/c mice; settings: mouse, in vivo
# CT26 cells [3] = assay: Fluorescence detection of cell surface CRT; assay type: cell-based, murine
# Method: CT26 cells were cultured at 37° C. under 5% CO2 in RPMI 1640 medium supplemented with 10% FCS, penicillin, streptomycin, 1 mM pyruvate and 10 mM HEPES in the presence of doxorubicin (DX; 24 h, 25 μM), mitoxantrone (Mitox; 24 h, 1 μM, Sigma), idarubicin (24 h, 1 μM, Aventis, France), mitomycin C (30 μM, 48 h; Sanofi-Synthelabo, France), and/or zVAD-fmk (50 μM, 24 h; Bachem), tunicamycin (24 h, 65 μM), thapsigargin (24 h, 30 μM), brefeldin A (24 h, 50 μM, Sigma), etoposide (48 h, 25 μM, Tava classics), MG132 (48 h, 10 μM), ALLN (48 h, […]), betulinic acid (24 h, 10 μM), Hoechst 33343 (24 h, 0.2 μM), camptothecine (24 h, 15 μM), lactacystin (48 h, 60 μM), BAY 11-8072 (24 h, 30 μM), staurosporine (24 h, 1.5 μM), bafilomycin A1 (48 h, 300 nM), arsenic trioxide (24 h, 30 μM), C2-ceramide (C2-C; 24 h, 60 μM), calyculin A (48 h, 30 nM), or tautomycin (48 h, […], Sigma) and/or salubrinal (48 h, […], Calbiochem).
# CT26 cells (on a glass slide or in 12-well plates) were first washed with FACS buffer (1×PBS, 5% fetus bovine serum, and 0.1% sodium azide) and then incubated with rabbit anti-mouse CRT antibody (1:100, Stressgen) in FACS buffer at 4° C. for 30 min. Cells reacted with anti-rabbit IgG (H+L) Alexa fluor 488-conjugates (1:500) in FACS buffer at 4° C. for 30 min. After washing three times with FACS buffer, surface CRT was detected by cytofluorometric analysis on a FACS Vantage. In some experiments, cells were fixed with 4% paraformaldehyde, counterstained with Hoechst (2 μM; Sigma), followed by fluorescence microscopic assessment with a Leica IRE2 microscope equipped with a DC300F camera.
# CT26 colon cancer cells = assay: Calreticulin exposure with PP1/GADD34 inhibitory peptide (flow cytometry); assay type: cell-based, murine; settings: 2 hours
# Method: (§1) HCT116 cells (FIG. 7A) or CT26 cells (FIG. 7B) were cultured in complete mediums supplemented with 10% fetal calf serum alone or in the presence of the control peptide (VKKKKIKREIKI-lkaravafsekv) or the PP1/GADD34 inhibitory peptide (VKKKKIKREIKI-lkarkvrfsekv, denominated PP1 peptide) for 2 hours. Cells were washed twice with PBS and fixed in PFA (4% w/v) for 5 min. Cells were stained with an antibody against calreticulin (pAb from Abcam, ab2907) at 1:200 dilution or isotype control, in staining buffer (PBS, 1% FCS) for 30 min on ice, followed by washing. An anti-rabbit Alexa fluor 488 immunoglobulin conjugate (Molecular Probes-Invitrogen) diluted at 1:500 was added for an additional 30 min on ice before washing and analysed by flow cytometry (FACScan, Becton Dickinson). Propidium Iodide (50 μg/ml, Becton Dickinson) was added to the samples to label and exclude permeabilized (dead) cells.
# HCT116 colon cancer cell = assay: as above; assay type: cell-based, human; settings: 2 hours
# Method: as §1
# CT26 cells [4] = assay: Phagocytosis of tumour cells by dendritic cells (DC); assay type: cell-based, BALB/c mice
# Method: BM cells were flushed from the tibias and femurs of BALB/c mice with culture medium composed of RPMI 1640 medium (Invitrogen Life Technologies) supplemented with 10% heat-inactivated FBS (Invitrogen), sodium pyruvate, 50 μM 2-ME (Sigma), 10 mM HEPES (pH 7.4), and penicillin/streptomycin (Invitrogen). After one centrifugation, BM cells were resuspended in Tris-ammonium chloride for 2 min to lyse RBC. After one more centrifugation, BM cells (1×10^6 cells/ml) were cultured in medium supplemented with 100 ng/ml recombinant mouse FLT3 ligand (R&D systems) in 6-well plates (Costar Corning). After 7 days, the non-adherent and loosely adherent cells were harvested with Versene, washed and transferred in 12-well plates (1.5×10^6 cells/plate) for cocultures with tumour cells.
# In 12-well plates, […] adherent CT26 cells were labelled with Celltracker Green (Calbiochem) and then incubated with drugs. In some experiments viable CT26 were coated with 2 μg/10^6 cells of chicken anti-CRT antibody (ABR affinity bioreagents) or an isotype control for 30 min prior to washing and feeding to dendritic cells Cs. Alternatively CT26 cells were coated with 2 μg/10^6 cells of rCRT on ice for 30 min and washed twice prior to addition to dendritic cells. Cells were then harvested, washed three times with medium supplemented with FBS and cocultured with immature DC for 2 hours at a ratio of 1:1 and 1:5. At the end of the incubation, cells were harvested with versene, pooled with non-adherent cells present in the supernatant, washed and stained with CD11c-FITC antibody. Phagocytosis was assessed by FACS analysis of double positive cells. Phagocytic indexes refer to the ratio between values obtained at 4° C. and values obtained at 37° C. of co-incubation between DC and tumour cells.
# DC = DC maturation ex vivo; assay type: cell-based; settings: rCRT alone, over a large range of concentrations
# CT26 cells [5] = assay: Local immune response: footpad injection, IFN-γ secretion by draining lymph node cells; assay type: in vivo, Balb/c mice; settings: foot pad injection
# Method: FIG. 4C: Exogenous supply of CRT enhances the immunogenicity of CRT-negative dying cells. CT26 cells lacking CRT expression after depletion of CRT with a siRNA and mitoxantrone treatment or after mitomycin treatment were coated with rCRT (inserts) and then injected in the food pad, followed by assessment of the IFN-γsecretion by cells from the draining lymph nodes as in FIG. 4B.
# Tumours were evaluated weekly, using a caliper.
molecule,measurement,setting,value
O=C(/C=C/c1ccccc1)NC(NC(=S)Nc1cccc2cccnc12)C(Cl)(Cl)Cl (stereo not drawn) [salubrinal],"CRT exposure, human tumour cell lines","HeLa, A549, HCT116",induced CRT exposure
same,"CRT exposure, murine tumour cell lines","MCA205, B16F10, J558",induced CRT exposure
same,"therapeutic effect of intratumoural injection, single agent, immunocompetent mice",CT26 tumours [1],no major therapeutic effect
same,"therapeutic effect combined with a cell death inducer (etoposide or mitomycin C), immunocompetent mice",CT26 tumours [1],stable disease or complete tumour regression
same,"therapeutic effect of intratumoural injection, single agent, nu/nu mice",CT26 tumours [2],no major therapeutic effect
same,immunogenic cell death by PP1/GADD34 inhibition alone,CT26 tumour cells,not sufficient to induce immunogenic cell death
same,CRT exposure at the cell surface,CT26 cells [3],efficiently induced
"VKKKKIKREIKI-LKARKVRFSEKV (VKKKKIKREIKILKARKVRFSEKV) [peptide comprising SEQ ID NO:4, fragment of GADD34 fused to a DPT-sh1 translocation motif]","exposure of calreticulin, CT26",CT26 colon cancer cells,capable of inducing the exposure of calreticulin
same,"exposure of calreticulin, HCT116",HCT116 colon cancer cell,capable of inducing the exposure of calreticulin
VKKKKIKREIKI-lkaravafsekv [mutant control peptide],"exposure of calreticulin, CT26",CT26 colon cancer cells,did not induce calreticulin exposure
same,"exposure of calreticulin, HCT116",HCT116 colon cancer cell,did not induce calreticulin exposure
B1,effect of rCRT injected into a distant site on intratumourally injected etoposide,CT26 tumours [1]; contralateral subcutaneous injection,did not ameliorate the antitumoural effects
same,"therapeutic effect of intratumoural injection, single agent, immunocompetent mice",CT26 tumours [1],no major therapeutic effect
same,"therapeutic effect combined with a cell death inducer (etoposide or mitomycin C), immunocompetent mice",CT26 tumours [1],able to cause tumour regression
same,"therapeutic effect of intratumoural injection, single agent, nu/nu mice",CT26 tumours [2],no major therapeutic effect
same,anti-cancer immune response to rCRT-coated cells without prior treatment with cell death inducers,CT26 tumour cells,failed to elicit an anti-cancer immune response
same,anti-tumour immune response to etoposide-treated cells coated with rCRT,CT26 tumour cells,elicited a vigorous anti-tumour immune response
same,"immunogenicity of mitoxantrone-treated CT26 cells with CRT knock-down, complemented with rCRT",CT26 tumour cells,restored
same,"phagocytosis by DC and CRT expression after CRT-specific siRNA, with addition of rCRT",CT26 cells [4],could reverse the defect
same,DC maturation,DC,could not promote DC maturation
same,immunogenicity (interferon production by T cells from popliteal lymph node) of mitomycin-treated cells coated with rCRT,CT26 cells [5],greatly enhanced the immunogenicity
